Consider 20 compounds from PubChem BioAssay (NCI).

Each structure is given as a SMILES string.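 Cultured in 96-well plates, cells were exposed to test compound for 48 hours across five concentrations. GI50 marks 50% less growth. TGI denotes the concentration required for complete inhibition of growth.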 Some results are limits rather than exact numbers.

Common to all, as to assay: growth of human tumour cells (NCI), 48 h
Assay [1] deals with SW-620 colon.
Assay [2] relates to OVCAR-3 ovarian.
The subject of assay [3] is BT-549 breast.
The test system of assay [4] is IGROV1 ovarian.
The test system of assay [5] is MOLT-4 leukemia.
The test system of assay [6] is T-47D breast.
For assay [7], the system named is OVCAR-8 ovarian.
In assay [8] the test system is MCF7 breast.
Assay [9] relates to NCI/ADR-RES ovarian.
In assay [10] the test system is SNB-75 CNS.

As for `O=C(O)/C=N\Nc1nc2ccccc2[nH]1`, the TGI in [1], in assay [2], in assay [3], in assay [4], in [5] and in [6] was greater than 100 µM each time. In addition, the TGI in assay [7], in [8], in [9] and in assay [10] was greater than 100 µM in each case.
Take `COc1ccc(C2CC(c3cccc(Nc4ccncc4)c3)=NN2c2cc(Cl)cc(Cl)c2)cc1` (configuration not stated): the GI50 in assay [1] is 1.71 µM; in [2] it was 1.81 µM; in [3], 5.57 µM; in assay [4], 1.69 µM; in [5], 2.04 µM; in assay [6], 1.96 µM. Also, the GI50 is 1.67 µM in assay [8], 1.72 µM in assay [9] and 2.09 µM in [10]. Further, the TGI in assay [1] is 3.26 µM; in assay [2] it was 3.35 µM; in assay [3], 24.8 µM; in [4] it was 3.35 µM; in assay [5], 4.97 µM; in assay [6] it was 4.43 µM. For the same compound, the TGI in assay [8] stood at 3.3 µM; in [9], 3.27 µM; in assay [10] it was 11.7 µM.
Consider `O=[N+]([O-])c1ccc(C=C2C(Cl)=C(Cl)C(Cl)=C2Cl)cc1`, for which the GI50 in [2] is 1.83 µM; in assay [3], 4.75 µM; in assay [4], 2 µM; in [5], 3.07 µM; in assay [6], 2.16 µM; in [7], 2.16 µM. The GI50 is 2.78 µM in assay [8], 3.05 µM in assay [9] and 2.05 µM in [10]. The TGI in assay [2] was 3.46 µM; in assay [3] it was greater than 100 µM; in assay [4], 4.41 µM; in [5], greater than 100 µM; in [6], 5.46 µM; in assay [7], 5.28 µM. Also, the TGI in assay [8] came to 10.9 µM; in assay [9], 17.2 µM; in [10], 6.98 µM.
For the compound `CC(C)(C)C(=O)OCC1CCC[N+]2(C)CCCCC12` (configuration not stated), the TGI in assay [1], in assay [2], in assay [3], in assay [4], in assay [5] and in assay [6] was greater than 100 µM in each case. The TGI in [7], in assay [8], in assay [9] and in assay [10] was greater than 100 µM throughout.
Take `O=C(O)c1nc(-c2ccccc2)ncc1-c1nnnn1-c1ccccc1`: the TGI in assay [1], in assay [2], in assay [3], in [4], in [5] and in assay [6] was greater than 100 µM throughout. Further, the TGI in assay [7], in [8], in [9] and in [10] was greater than 100 µM throughout.
`CC(C)C1OC23CCCCC2C(C#N)(C#N)C1(C#N)C(=N)O3` (configuration not stated): the TGI in assay [1] is 99.3 µM; in assay [2] it was 59.8 µM; in assay [3] it was 39.8 µM; in assay [5], greater than 100 µM; in [6], 71.7 µM; in [7], 49.8 µM. Also, the TGI is 36.6 µM in assay [8], greater than 100 µM in assay [9] and greater than 100 µM in [10].
As for `Clc1c(Cl)c(Cl)c2nn(C3CCCO3)nc2c1Cl` (configuration not stated), the TGI in [2] is greater than 100 µM; in assay [3] it was 80.5 µM; in [4], greater than 100 µM; in assay [5] it was greater than 100 µM; in assay [6] it was greater than 100 µM; in [7], greater than 100 µM. Also, the TGI in [8] and in assay [9] was greater than 100 µM in each case.
`COc1cc(-c2cc(=O)c3c(OC)c(OC)c(OC)c(OC)c3o2)c(OC)c(OC)c1OC`: the TGI was greater than 100 µM in [1]; 56.8 µM in [3]; greater than 100 µM in assay [4]; greater than 100 µM in [5]; 51 µM in assay [6]; greater than 100 µM in assay [7]. Moreover, the figures for the TGI in assay [8], in assay [9] and in assay [10] were greater than 100 µM, 66.8 µM and greater than 100 µM, respectively.
For `CCCCCN=Cc1c(O)c(O)c(C(C)C)c2cc(C)c(-c3c(C)cc4c(C(C)C)c(O)c(O)c(C=NCCCCC)c4c3O)c(O)c12`, the TGI in assay [1] is greater than 100 µM; in assay [2], 65 µM; in [3], 38.7 µM; in [4], 87.4 µM; in [6], 25.8 µM; in [7] it was greater than 100 µM. The TGI in [8] was 27.2 µM; in [9], greater than 100 µM.
For the compound `CCc1nc(N)nc(N)c1-c1ccc(Cl)c(Cl)c1`, the TGI in assay [1], in assay [2], in [3], in [4], in [6] and in [8] was greater than 100 µM in each case. Further, the TGI in assay [9] and in assay [10] was greater than 100 µM each time.
As to `CCCCCCCCCCCCCCCCCCNc1ccn(C2OC(COP(=O)(O)OCC3OC(n4cc(C)c(=O)[nH]c4=O)CC3O)C(O)C2O)c(=O)n1` (configuration not stated), the TGI worked out at 28.5 µM in assay [1]; 39.7 µM in assay [2]; 29.9 µM in assay [3]; 25.7 µM in assay [5]; 41.8 µM in assay [6]; 31.6 µM in assay [7]. For the same compound, the TGI in assay [8] is greater than 100 µM; in assay [9], 31.3 µM; in assay [10] it was 33 µM.
On to `COc1ccc2nc3ccc(OC)cc3c(S(=O)CCCl)c2c1` (configuration not stated), for which the TGI in assay [2] is 6.24 µM; in assay [3] it was 30.3 µM; in assay [4] it was 6.87 µM; in [5], greater than 20.7 µM; in [6], 5.62 µM; in assay [7], 9.2 µM. For the same compound, the TGI in assay [8] was greater than 21.4 µM; in [9] it was 36.8 µM; in [10], 33.1 µM.
For `O=C(O)c1n[nH]nc1Cl`, the TGI in [1], in [2], in [3], in assay [4], in assay [6] and in assay [7] was greater than 100 µM in each case. Also, the TGI in assay [8], in assay [9] and in [10] was greater than 100 µM each time.
Take `NC(Cc1cccc([N+](=O)[O-])c1)C(=O)O` (configuration not stated): the TGI in assay [1], in assay [2], in [3], in assay [4], in assay [5] and in assay [6] was greater than 100 µM throughout. In addition, the TGI in assay [7], in [8] and in assay [9] was greater than 100 µM throughout.
As to `CS(=O)(=O)Nc1ccc(N2Cc3cnc4ccc5[nH]ccc2c5c34)cc1`, the TGI in [1] was greater than 100 µM; in assay [2], 32.2 µM; in assay [3], 51.3 µM; in assay [4], 79.9 µM; in assay [5], 8.94 µM; in [6] it was 20.5 µM. The figures for the TGI in assay [7], in assay [8] and in assay [9] were 62.5 µM, greater than 100 µM and greater than 100 µM, respectively.
`NNC(N)Nc1ccccc1` (configuration not stated): the TGI in [1], in assay [2], in assay [3], in [4], in assay [5] and in assay [6] was greater than 100 µM each time. Besides, the TGI in [7], in assay [8] and in assay [9] was greater than 100 µM each time.
Take `Nc1nc(Cl)c(N)c(NC23CC4CC(CC(C4)C2)C3)n1`: the TGI in assay [1] is 2.94 µM; in assay [2], 3.62 µM; in assay [3] it was 6.76 µM; in assay [4], greater than 100 µM; in assay [5], 4.81 µM; in [6], 3.61 µM. For the same compound, the TGI in assay [7] is 6.59 µM; in [8], 3.78 µM; in assay [10] it was 4.91 µM.
`O=C(CC(=O)Nc1cccc(C(=O)O)c1)Nc1cccc(C(=O)O)c1`: the TGI in assay [1], in [2], in assay [3], in [4], in assay [5] and in [6] was greater than 100 µM throughout. Also, the TGI in assay [7], in assay [8] and in [9] was greater than 100 µM each time.
`c1ccc(N=C2SC(=NC3CCCCC3)N(C3CCCCC3)C2=Nc2ccccc2)cc1`: the TGI in assay [2], in [3], in assay [4], in assay [5], in [6] and in assay [7] was greater than 100 µM throughout. For the same compound, the TGI in assay [8], in assay [9] and in [10] was greater than 100 µM in each case.
On to `Cc1cc2nc3c(C#N)c(-c4ccccc4)cc(Nc4ccc(Cl)cc4)n3c2cc1C`, for which the TGI in [1], in assay [2], in [3], in [6], in assay [7] and in [8] was greater than 100 µM in each case. Besides, the TGI in assay [9] and in assay [10] was greater than 100 µM in each case.
